Reference: patent US20150099667A1, “METHODS FOR THE ACTIVATION OF SILENT GENES IN A MICROORGANISM” (priority 2012, published 2015)
Where two headings read alike, the source gives them in different places.

Columns and labels:
Assay in all cases: Biological screening of extracts of induced Actinobacteria, BacTiter-Glo assay
Format in all cases: cell-based
[1] = system: Candida albicans ATCC 753; conditions: FIG. 10
[2] = system: Escherichia coli ATCC 35218; conditions: FIG. 4
[3] = system: Pseudomonas aeruginosa ATCC 27853
[4] = system: Staphylococcus aureus ATCC 33592
[5] = chemical inducer 3.3 μg/ml in medium 5294

[Cl][Ni][Cl] [NiCl2] was tested, and the “extracts that showed >50% activity against Candida albicans ATCC 753, share by culture condition” value [1, 5] was 3.7%.

For C[S+](C)[O-] [DMSO], the “extracts that showed >50% activity against Candida albicans ATCC 753, share by culture condition” value ([1]; chemical inducer 10 μl/ml in medium 5294) was 3.5% and the “extracts that showed >50% activity against Escherichia coli ATCC 35218, share by culture condition” value ([2]; chemical inducer 50 μl/ml in medium 5294) was 3.6%.

With [Cl-].[Cl-].[Sr+2] [SrCl2] the “extracts that showed >50% activity against Candida albicans ATCC 753, share by culture condition” value ([1]; chemical inducer 1.6 μg/ml in medium 5294) was 3.5%, the “extracts showing >50% activity against Pseudomonas aeruginosa ATCC 27853, share by culture condition” value ([3]; chemical inducer 3.3 μg/ml in medium 5294, FIG. 6) was 3.8% and the “extracts that showed >50% activity against Staphylococcus aureus ATCC 33592, share by culture condition” value ([4]; chemical inducer 3.3 μg/ml in medium 5294, FIG. 8) was 3.5%.

In the case of O=[Se]([O-])O.[Na+] [NaHSeO3], the “extracts that showed >50% activity against Escherichia coli ATCC 35218, share by culture condition” value [2, 5] is reported as 3.3%.

For [Cl-].[Cl-].[Co+2] [CoCl2], the “extracts showing >50% activity against Pseudomonas aeruginosa ATCC 27853, share by culture condition” value [3] was 3.8% and the “extracts that showed >50% activity against Staphylococcus aureus ATCC 33592, share by culture condition” value [4] was 3.6%.
